Measurements as given in patent US10597388B2, “Pyridazinone herbicides” (FMC CORPORATION, priority 2014, dated 2020).

What was measured:
Experiment in all cases: Test C greenhouse herbicide test, pre- and postemergence
Type in all cases: in vivo
[1] = tested on: barnyardgrass (Echinochloa crus-galli)
Outline: (§1)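 Visual 0–100 injury score (100 = complete control) taken against untreated controls after 13–15 d in greenhouse. Test chemicals, formulated in solvent plus surfactant, applied preemergence to seeds in loam–sand soil or postemergence to 1- to 4-leaf plants (2–18 cm).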

[2] = tested on: blackgrass (Alopecurus myosuroides)
Outline: as §1

corn (Zea mays) = tested on: corn (Zea mays)
Outline: as §1

[3] = tested on: crabgrass, large (large crabgrass, Digitaria sanguinalis)
Outline: as §1

[4] = tested on: foxtail, giant (giant foxtail, Setaria faberii)
Outline: as §1

[5] = tested on: galium (catchweed bedstraw, Galium aparine)
Outline: as §1

[6] = tested on: lambsquarters (Chenopodium album)
Outline: as §1

[7] = tested on: morningglory (Ipomoea coccinea)
Outline: as §1

[8] = tested on: oilseed rape (Brassica napus)
Outline: as §1

[9] = tested on: pigweed (Amaranthus retroflexus)
Outline: as §1

[10] = tested on: ragweed (common ragweed, Ambrosia elatior)
Outline: as §1

[11] = tested on: ryegrass, Italian (Italian ryegrass, Lolium multiflorum)
Outline: as §1

[12] = tested on: velvetleaf (Abutilon theophrasti)
Outline: as §1

[13] = tested on: waterhemp (common waterhemp, Amaranthus rudis)
Outline: as §1

[14] = tested on: wheat (winter wheat, Triticum aestivum)
Outline: as §1

[15] = Postemergence, 31 g ai/ha, 0 to 100 scale (0 no effect, 100 complete control)
[16] = Postemergence, 125 g ai/ha, scale 0 to 100, 0 is no effect, 100 is complete control
[17] = Postemergence, 250 g ai/ha, scale 0 to 100, 0 no effect, 100 complete control, 13 to 15 d
[18] = Preemergence, 31 g ai/ha, scale 0 to 100, 0 is no effect, 100 is complete control
[19] = Preemergence, 62 g ai/ha, scale 0 to 100, 0 is no effect, 100 is complete control
[20] = Preemergence, 125 g ai/ha, scale 0 to 100, 0 is no effect, 100 is complete control
[21] = Preemergence, 250 g ai/ha, scale 0 to 100, 0 no effect, 100 complete control
[22] = postemergence, 62 g ai/ha, scale 0 to 100, 0 no effect, 100 complete control

## Cc1nn(C)c(=O)c(-c2ccc(Br)c3ccccc23)c1O [Compound 75]
[1]; [15]
  Barnyardgrass plant response rating: 25
[1]; [16]
  Plant response rating, Barnyardgrass: 15
[1]; [17]
  Plant response rating, Barnyardgrass: 20
[1]; [18]
  Plant response rating, Barnyardgrass: 5
[1]; [19]
  Plant response rating, Barnyardgrass: 25
[1]; [20]
  Plant response rating, Barnyardgrass: 50
[1]; [21]
  Barnyardgrass plant response rating: 85
[1]; [22]
  Barnyardgrass plant response rating: 25
[2]; [15]
  Blackgrass plant response rating: 5
[2]; [16]
  Plant response rating, Blackgrass: 20
[2]; [17]
  Plant response rating, Blackgrass: 35
[2]; [18]
  Plant response rating, Blackgrass: 20
[2]; [19]
  Plant response rating, Blackgrass: 30
[2]; [20]
  Plant response rating, Blackgrass: 30
[2]; [21]
  Blackgrass plant response rating: 30
[2]; [22]
  Blackgrass plant response rating: 5
Corn (Zea mays); [15]
  Corn plant response rating: 5
Corn (Zea mays); [16]
  Plant response rating, Corn: 10
Corn (Zea mays); [17]
  Plant response rating, Corn: 10
Corn (Zea mays); [18]
  Plant response rating, Corn: 0
Corn (Zea mays); [19]
  Plant response rating, Corn: 5
Corn (Zea mays); [20]
  Plant response rating, Corn: 0
Corn (Zea mays); [21]
  Corn plant response rating: 10
Corn (Zea mays); [22]
  Corn plant response rating: 5
[3]; [15]
  Crabgrass, Large plant response rating: 5
[3]; [16]
  Plant response rating, Crabgrass, Large: 5
[3]; [17]
  Plant response rating, Crabgrass, Large: 20
[3]; [18]
  Plant response rating, Crabgrass, Large: 75
[3]; [19]
  Plant response rating, Crabgrass, Large: 10
[3]; [20]
  Plant response rating, Crabgrass, Large: 25
[3]; [21]
  Crabgrass, Large plant response rating: 50
[3]; [22]
  Crabgrass, Large plant response rating: 10
[4]; [15]
  Foxtail, Giant plant response rating: 5
[4]; [16]
  Plant response rating, Foxtail, Giant: 5
[4]; [17]
  Plant response rating, Foxtail, Giant: 10
[4]; [18]
  Plant response rating, Foxtail, Giant: 5
[4]; [19]
  Plant response rating, Foxtail, Giant: 45
[4]; [20]
  Plant response rating, Foxtail, Giant: 70
[4]; [21]
  Foxtail, Giant plant response rating: 75
[4]; [22]
  Foxtail, Giant plant response rating: 5
[5]; [15]
  Galium plant response rating: 90
[5]; [16]
  Plant response rating, Galium: 90
[5]; [17]
  Plant response rating, Galium: 90
[5]; [18]
  Plant response rating, Galium: 90
[5]; [19]
  Plant response rating, Galium: 90
[5]; [20]
  Plant response rating, Galium: 90
[5]; [21]
  Galium plant response rating: 98
[5]; [22]
  Galium plant response rating: 90
[6]; [15]
  Lambsquarters plant response rating: 100
[6]; [16]
  Plant response rating, Lambsquarters: 100
[6]; [17]
  Plant response rating, Lambsquarters: 100
[6]; [18]
  Plant response rating, Lambsquarters: 65
[6]; [19]
  Plant response rating, Lambsquarters: 100
[6]; [20]
  Plant response rating, Lambsquarters: 85
[6]; [21]
  Lambsquarters plant response rating: 90
[6]; [22]
  Lambsquarters plant response rating: 100
[7]; [15]
  Morningglory plant response rating: 98
[7]; [16]
  Plant response rating, Morningglory: 100
[7]; [17]
  Plant response rating, Morningglory: 75
[7]; [18]
  Plant response rating, Morningglory: 70
[7]; [19]
  Plant response rating, Morningglory: 85
[7]; [20]
  Plant response rating, Morningglory: 95
[7]; [21]
  Morningglory plant response rating: 100
[7]; [22]
  Morningglory plant response rating: 100
[8]; [15]
  Oilseed Rape plant response rating: 70
[8]; [16]
  Plant response rating, Oilseed Rape: 90
[8]; [17]
  Plant response rating, Oilseed Rape: 80
[8]; [18]
  Plant response rating, Oilseed Rape: 30
[8]; [19]
  Plant response rating, Oilseed Rape: 70
[8]; [20]
  Plant response rating, Oilseed Rape: 90
[8]; [21]
  Oilseed Rape plant response rating: 98
[8]; [22]
  Oilseed Rape plant response rating: 70
[9]; [15]
  Pigweed plant response rating: 85
[9]; [16]
  Plant response rating, Pigweed: 100
[9]; [17]
  Plant response rating, Pigweed: 98
[9]; [18]
  Plant response rating, Pigweed: 85
[9]; [19]
  Plant response rating, Pigweed: 100
[9]; [20]
  Plant response rating, Pigweed: 100
[9]; [21]
  Pigweed plant response rating: 100
[9]; [22]
  Pigweed plant response rating: 95
[10]; [15]
  Ragweed plant response rating: 95
[10]; [16]
  Plant response rating, Ragweed: 100
[10]; [17]
  Plant response rating, Ragweed: 100
[10]; [18]
  Plant response rating, Ragweed: 80
[10]; [19]
  Plant response rating, Ragweed: 85
[10]; [20]
  Plant response rating, Ragweed: 90
[10]; [21]
  Ragweed plant response rating: 100
[10]; [22]
  Ragweed plant response rating: 85
[11]; [15]
  Ryegrass, Italian plant response rating: 80
[11]; [16]
  Plant response rating, Ryegrass, Italian: 85
[11]; [17]
  Plant response rating, Ryegrass, Italian: 85
[11]; [18]
  Plant response rating, Ryegrass, Italian: 90
[11]; [19]
  Plant response rating, Ryegrass, Italian: 90
[11]; [20]
  Plant response rating, Ryegrass, Italian: 90
[11]; [21]
  Ryegrass, Italian plant response rating: 90
[11]; [22]
  Ryegrass, Italian plant response rating: 80
[12]; [15]
  Velvetleaf plant response rating: 70
[12]; [16]
  Plant response rating, Velvetleaf: 85
[12]; [17]
  Plant response rating, Velvetleaf: 85
[12]; [18]
  Plant response rating, Velvetleaf: 35
[12]; [19]
  Plant response rating, Velvetleaf: 85
[12]; [20]
  Plant response rating, Velvetleaf: 90
[12]; [21]
  Velvetleaf plant response rating: 98
[12]; [22]
  Velvetleaf plant response rating: 50
[13]; [15]
  Waterhemp plant response rating: 100
[13]; [16]
  Plant response rating, Waterhemp: 100
[13]; [17]
  Plant response rating, Waterhemp: 100
[13]; [18]
  Plant response rating, Waterhemp: 100
[13]; [19]
  Plant response rating, Waterhemp: 100
[13]; [20]
  Plant response rating, Waterhemp: 100
[13]; [21]
  Waterhemp plant response rating: 100
[13]; [22]
  Waterhemp plant response rating: 100
[14]; [15]
  Wheat plant response rating: 0
[14]; [16]
  Plant response rating, Wheat: 0
[14]; [17]
  Plant response rating, Wheat: 0
[14]; [18]
  Plant response rating, Wheat: 0
[14]; [19]
  Plant response rating, Wheat: 0
[14]; [20]
  Plant response rating, Wheat: 10
[14]; [21]
  Wheat plant response rating: 5
[14]; [22]
  Wheat plant response rating: 0

## CCC(=O)Oc1c(C)nn(C)c(=O)c1-c1c(C)ccc2ccccc12 [Compound 78]
[1]; [15]
  Barnyardgrass plant response rating: 15
[1]; [16]
  Plant response rating, Barnyardgrass: 30
[1]; [17]
  Plant response rating, Barnyardgrass: 25
[1]; [22]
  Barnyardgrass plant response rating: 25
[2]; [15]
  Blackgrass plant response rating: 0
[2]; [16]
  Plant response rating, Blackgrass: 5
[2]; [17]
  Plant response rating, Blackgrass: 30
[2]; [22]
  Blackgrass plant response rating: 5
Corn (Zea mays); [15]
  Corn plant response rating: 0
Corn (Zea mays); [16]
  Plant response rating, Corn: 10
Corn (Zea mays); [17]
  Plant response rating, Corn: 0
Corn (Zea mays); [22]
  Corn plant response rating: 0
[3]; [15]
  Crabgrass, Large plant response rating: 5
[3]; [16]
  Plant response rating, Crabgrass, Large: 10
[3]; [17]
  Plant response rating, Crabgrass, Large: 10
[3]; [22]
  Crabgrass, Large plant response rating: 5
[4]; [15]
  Foxtail, Giant plant response rating: 15
[4]; [16]
  Plant response rating, Foxtail, Giant: 20
[4]; [17]
  Plant response rating, Foxtail, Giant: 25
[4]; [22]
  Foxtail, Giant plant response rating: 5
[5]; [15]
  Galium plant response rating: 70
[5]; [16]
  Plant response rating, Galium: 80
[5]; [17]
  Plant response rating, Galium: 95
[5]; [22]
  Galium plant response rating: 80
[6]; [15]
  Lambsquarters plant response rating: 40
[6]; [16]
  Plant response rating, Lambsquarters: 75
[6]; [17]
  Plant response rating, Lambsquarters: 100
[6]; [22]
  Lambsquarters plant response rating: 70
[7]; [15]
  Morningglory plant response rating: 20
[7]; [16]
  Plant response rating, Morningglory: 65
[7]; [17]
  Plant response rating, Morningglory: 65
[7]; [22]
  Morningglory plant response rating: 40
[8]; [15]
  Oilseed Rape plant response rating: 0
[8]; [16]
  Plant response rating, Oilseed Rape: 0
[8]; [17]
  Plant response rating, Oilseed Rape: 5
[8]; [22]
  Oilseed Rape plant response rating: 0
[9]; [15]
  Pigweed plant response rating: 50
[9]; [16]
  Plant response rating, Pigweed: 75
[9]; [17]
  Plant response rating, Pigweed: 80
[9]; [22]
  Pigweed plant response rating: 60
[10]; [15]
  Ragweed plant response rating: 10
[10]; [16]
  Plant response rating, Ragweed: 60
[10]; [17]
  Plant response rating, Ragweed: 75
[10]; [22]
  Ragweed plant response rating: 20
[11]; [15]
  Ryegrass, Italian plant response rating: 55
[11]; [16]
  Plant response rating, Ryegrass, Italian: 85
[11]; [17]
  Plant response rating, Ryegrass, Italian: 90
[11]; [22]
  Ryegrass, Italian plant response rating: 65
[12]; [15]
  Velvetleaf plant response rating: 0
[12]; [16]
  Plant response rating, Velvetleaf: 35
[12]; [17]
  Plant response rating, Velvetleaf: 60
[12]; [22]
  Velvetleaf plant response rating: 10
[13]; [15]
  Waterhemp plant response rating: 75
[13]; [16]
  Plant response rating, Waterhemp: 80
[13]; [17]
  Plant response rating, Waterhemp: 90
[13]; [22]
  Waterhemp plant response rating: 90
[14]; [15]
  Wheat plant response rating: 0
[14]; [16]
  Plant response rating, Wheat: 5
[14]; [17]
  Plant response rating, Wheat: 10
[14]; [22]
  Wheat plant response rating: 5
